Data as given in patent EP0358152A1, “Diazine-substituted 1-adamantanes, process for their preparation, and their use as medicaments” (priority 1988, dated 1990).
Where “and” joins values, the source holds several entries; their conditions need not be identical. Equal entries are not always repeated.

How the values were obtained:
[1] = system: Subtyp H3N2 A/Philippines 2/82; assay type: cell-based, Influenzaviren Typ A
[2] = system: Subtyp H2N2 A/Singapore 1/57; assay type: cell-based, Influenzaviren Typ A
[3] = system: Subtyp H1N1 A/Brasil 11/78; assay type: cell-based, Influenzaviren Typ A
[4] = system: Typ B B/Singapore 222/79; assay type: cell-based, Influenzaviren Typ B
[5] = system: Subtyp H3N2 A/Hongkong 1/68; assay type: cell-based, Influenzaviren Typ A
[6] = system: A/Krasnodar 101/59; assay type: cell-based, Influenzaviren Typ A
[7] = system: Influenzaviren vom Typ B; experiment: Inhibitory effect on influenza viruses of type B; assay type: cell-based; details: statement in words
[8] = system: Influenzavirus Typ A Subtyp H1N1 A/Taiwan 1/86; assay type: cell-based

c1cnc(C23CC4CC(CC(C4)C2)C3)cn1 [2-(Adamant-1-yl)-pyrazin, 2-(Adamant-1-yl-)-pyrazin]
ID50 mit Wirkstoff (log 10) [1]: 5,5 log 10
Titerdifferenz (log 10) [1]: 0,33 log 10 and 0,83 log 10
Titerdifferenz (log 10) [2]: 1,51 log 10 and 1,33 log 10 and 1,17 log 10

Nc1nccc(C23CC4CC(CC(C4)C2)C3)n1 [4-(Adamant-1-yl)-2-amino-pyrimidin, 4-(Adamant-1-yl)-2-aminopyrimidin]
Titerdifferenz (log 10) [3]: 2,8 log 10 and 2,0 log 10
Titerdifferenz (log 10) [2]: 1,55 log 10 and 1,67 log 10

c1cc(C23CC4CC(CC(C4)C2)C3)ncn1 [4-(Adamant-1-yl)-pyrimidin]
ID50 mit Wirkstoff (log 10) [1]: 5,17 log 10
Titerdifferenz (log 10) [2]: 1,33 log 10 and 1,5 log 10 and 1,34 log 10

Cc1cncc(C23CC4CC(CC(C4)C2)C3)n1 [6-(Adamant-1-yl)-2-methyl-pyrazin, 6-(Adamant-1-yl)-2-methylpyrazin]
ID50 mit Wirkstoff (log 10) [3]: 3,33 log 10 and 3,67 log 10
Titerdifferenz (log 10) [3]: 1,97 log 10 and 1,66 log 10

Cc1cc(C23CC4CC(CC(C4)C2)C3)ncn1 [6-(Adamant-1-yl)-4-methyl-pyrimidin, 6-(Adamant-1-yl)-4-methylpyrimidin]
ID50 mit Wirkstoff (log 10) [3]: 3,83 log 10 and 3,33 log 10 and 3,0 log 10
ID50 mit Wirkstoff (log 10) [4]: 5,67 log 10
Titerdifferenz (log 10) [4]: 0,66 log 10 and 0,5 log 10
ID50 mit Wirkstoff (log 10) [5]: 3,83 log 10
Titerdifferenz (log 10) [5]: 0,92 log 10
ID50 mit Wirkstoff (log 10) [1]: 5,0 log 10 and 5,67 log 10
ID50 mit Wirkstoff (log 10) [6]: 2,5 log 10
Titerdifferenz (log 10) [6]: 2,5 log 10

CC(N)C12CC3CC(CC(C3)C1)C2.Cl (stereo not drawn) [Rimantadin, α-Methyl-1-adamantanmethylaminhydrochlorid]
Hemmwirkung gegenüber Influenzaviren vom Typ B [7]: nicht spezifisch wirksam
Titerreduktion (log 10) [1]: 0,17 log 10
ID₅₀ (log 10) mit Wirkstoff [2]: 2,5 log 10
Titerreduktion (log 10) [8]: 1,5 log 10 and 1,84 log 10
